Measured values from EPA's ToxRefDB 2.

Legend:
rat [1] = settings: Subchronic oral toxicity in rodents, sprague dawley, Feed, dose end: 90 day
dog = settings: Chronic toxicity, beagle, Oral, Capsule, dose end: 12 month, group: systemic
rat [2] = settings: Prenatal developmental toxicity study, sprague dawley, Oral, Gavage/Intubation, dose end: 15 GD
rat [3] = settings: Combined chronic toxicity/carcinogenicity, sprague dawley, Oral, Feed, dose end: 24 month, group: systemic
rat [4] = settings: Multigenerational reproductive toxicity study, sprague dawley, Oral, Feed, dose end: 2 generation
[5] = group: cholinesterase, cholinesterase / cholinesterase / cholinesterase / cholinesterase (che)
[6] = group: systemic, systemic / hematology / mean corpuscular (cell) volume (mcv) / mean corpuscular (cell) volume (mcv) + systemic / hematology / mean …
[7] = group: systemic, systemic / organ weight / thyroid gland / absolute
[8] = systemic / clinical chemistry / alkaline phosphatase (alp/alk) / alkaline phosphatase (alp/alk) + systemic / organ weight / liver / absolute…
[9] = group: developmental, developmental / developmental malformation / heart / [other] + developmental / developmental malformation / heart / defect a-v septum
[10] = group: developmental, developmental / developmental malformation / heart / [other] + developmental / developmental malformation / heart / defect a-v septum + …
[11] = group: maternal, reproductive / reproductive performance / resorptions / resorptions + reproductive / offspring survival early / litter size / litter size + …
[12] = systemic / pathology microscopic / kidney / nephropathy + systemic / hematology / hemoglobin (hgb) / hemoglobin (hgb) + systemic / …
[13] = group: offspring, developmental / offspring survival late / viability index / viability index + systemic / in life observation / body weight / offspring (pup…
[14] = group: parental, systemic / in life observation / body weight / body weight + systemic / in life observation / body weight / body weight gain + systemic / in…
[15] = group: reproductive, reproductive / offspring survival early / birth index / live birth index

C#CCN1C(=O)COc2cc(F)c(N3C(=O)C4=C(CCCC4)C3=O)cc21 [Flumioxazin]
LEL (rat [1]; [5]): 218 mg/kg/day | LOAEL (rat [1]; [5]): > 218 mg/kg/day | NEL (rat [1]; [5]): 72.9 mg/kg/day | NOAEL (rat [1]; [5]): ≥ 218 mg/kg/day | LOAEL (rat [1]; [6]): 22.4 mg/kg/day | NOAEL (rat [1]; [6]): 2.2 mg/kg/day | LEL (rat [1]; [7]): 1.9 mg/kg/day | NEL (rat [1]; [7]): < 1.9 mg/kg/day | LOAEL (dog; [8]): 1000 mg/kg/day | NEL (dog; [8]): 10 mg/kg/day | NOAEL (dog; [8]): 100 mg/kg/day | LEL (dog; systemic / organ weight / pituitary gland / absolute + systemic / organ weight / prostate / absolute + systemic / pathology microscopic / …): 100 mg/kg/day | LEL (rat [2]; [9]): 10 mg/kg/day | LOAEL (rat [2]; [9]): 10 mg/kg/day | NEL (rat [2]; [10]): 3 mg/kg/day | NOAEL (rat [2]; [10]): 3 mg/kg/day | NEL (rat [2]; group: maternal, reproductive / reproductive performance / resorptions / resorptions): 10 mg/kg/day | LEL (rat [2]; [11]): 30 mg/kg/day | LOAEL (rat [2]; [11]): > 30 mg/kg/day | NOAEL (rat [2]; [11]): ≥ 30 mg/kg/day | LOAEL (rat [3]; systemic / pathology microscopic / kidney / nephropathy): 18 mg/kg/day | LEL (rat [3]; systemic / pathology microscopic / kidney / nephropathy + systemic / hematology / hemoglobin (hgb) / hemoglobin (hgb) + systemic / pathology…): 18 mg/kg/day | NEL (rat [3]; [12]): 1.8 mg/kg/day | NOAEL (rat [3]; [12]): 1.8 mg/kg/day | LEL (rat [4]; [13]): 12.7 mg/kg/day | NEL (rat [4]; [13]): 6.3 mg/kg/day | LOAEL (rat [4]; group: offspring, systemic / in life observation / body weight / offspring (pup) weight): 15.1 mg/kg/day | NOAEL (rat [4]; group: offspring, systemic / in life observation / body weight / offspring (pup) weight + developmental / offspring survival late / lactation index / …): 7.6 mg/kg/day | LOAEL (rat [4]; group: parental, systemic / in life observation / body weight / body weight): 12.7 mg/kg/day | NEL (rat [4]; [14]): 6.3 mg/kg/day | NOAEL (rat [4]; [14]): 6.3 mg/kg/day | LEL (rat [4]; group: parental, systemic / in life observation / body weight / body weight + systemic / organ weight / epididymis / absolute + systemic / organ weight / …): 12.7 mg/kg/day | LEL (rat [4]; [15]): 12.7 mg/kg/day | LOAEL (rat [4]; [15]): 12.7 mg/kg/day | NEL (rat [4]; [15]): 6.3 mg/kg/day | NOAEL (rat [4]; [15]): 6.3 mg/kg/day
